The pKi is the negative decadic logarithm of the Ki, by convention in mol/L.

Experiment [1] relates to dynein-driven microtubule sliding in spoke-deficient axonemes. Description: Microtubule sliding velocity in spoke-deficient axonemes. It is filed as biochemical, Chlamydomonas reinhardtii. To be noted: for effect on velocity of microtubule sliding: spoke-deficient mutants (pf14, pf17).
Experiment [2] concerns the target cyclic nucleotide-dependent kinases. To be noted: inhibition of cyclic nucleotide-dependent kinases; ref Hidaka et al., 1984; cited from earlier work.
The target of experiment [3] is myosin light chain kinase. The note with it: ref Hidaka et al., 1984; cited from earlier work.
For experiment [4], the system named is dynein-driven microtubule sliding in wild-type 137c axonemes. Description: Microtubule sliding velocity in wild-type. It is filed as biochemical, Chlamydomonas reinhardtii.
Another experiment addresses protein kinase C. To be noted: ref Hidaka et al., 1984; cited from earlier work.
The target of experiment [5] is PKI-sensitive kinase activity. The note with it: demembranated ram sperm, treatment with cAMP; ref San Agustin and Witman, 1994; cited from earlier work.
In experiment [6] the test system is catalytic subunit of cAPK. To be noted: demembranated rat sperm; ref Horowitz et al., 1984; cited from earlier work.
The test system of experiment [7] is dynein-driven microtubule sliding in pf14 axonemes. Description: Microtubule sliding velocity in isolated pf14 axonemes. To be noted: pf14, 10 μM cAMP alone (Fig. 4), mean from 20 measurements. In kind it is biochemical, Chlamydomonas reinhardtii.
In experiment [8] the test system is dynein-driven microtubule sliding in pf17 axonemes. Briefly: Microtubule sliding velocity in isolated pf17 axonemes. It is filed as biochemical, Chlamydomonas reinhardtii.
For experiment [9], the system named is dynein-driven microtubule sliding in pf14pf28 axonemes. Briefly: Microtubule sliding velocity in pf14pf28 axonemes. In kind it is biochemical, Chlamydomonas reinhardtii.
For a further experiment, the system named is pf17 axonemes. Description: In vitro reactivation of beating of pf17 axonemes. In kind it is biochemical, Chlamydomonas reinhardtii. The note with it: pf17 axonemes with PKI, preliminary experiments.
The next experiment relates to inner arm dyneins. It is filed as biochemical, Chlamydomonas reinhardtii.
The target of experiment [10] is cAMP-dependent protein kinase (cAPK). The note with it: ref Glass et al., cited from earlier work.
The subject of experiment [11] is dynein-driven microtubule sliding in pf18 axonemes. Description: Microtubule sliding velocity in pf18 axonemes. The note with it: pf18, 100 nM PKI; Habermacher, G., unpublished results. In kind it is biochemical, Chlamydomonas reinhardtii.

pKi: −log10 of the molar value.

As to `CC1CNCCN1S(=O)(=O)c1cccc2cnccc12` (centres unmarked) [H-7], in experiment [1] (H-7, spoke-deficient axonemes, data not shown), the “effect on sliding velocity” value was “increases”. In addition, in experiment [1], the “effect on velocity of microtubule sliding” value (“effect on velocity” below) is on record as “increased to wild-type level”.

For the compound `Cl.N=C(N)NCCNS(=O)(=O)c1cccc2cnccc12` [HA-1004, N-(2-guanidinoethyl)-5-isoquinolinesulfonamide hydrochloride], the “dose dependence of sliding velocity stimulation” value in experiment [1] (spoke-deficient axonemes) is on record as “dose dependent”. In addition, the “effect on velocity” value in [1] is “increased to wild-type level”. For the same compound, the pKi in [2] was 5.52 to 6.00; in experiment [3], 3.82; at protein kinase C, 4.40. The “effect on microtubule sliding velocity” value in experiment [4] (wild-type, 15 μM HA-1004, not shown) is “had no effect”.

Turning to `Nc1ncnc2c1ncn2[C@@H]1O[C@@H]2COP(=O)(O)O[C@H]2[C@H]1O` [cAMP], in [1] (10 μM cAMP added to spokeless axonemes reconstituted with RII), the “effect on RII-induced increase in sliding” value is listed as “reversed the effect of RII”. The “PKI-sensitive kinase activity remaining bound after cAMP” value in experiment [5] is at most 50%. In experiment [6], the “release of catalytic activity” value is reported as “releases most of the catalytic activity”. The “effect on microtubule sliding velocity” value in experiment [7] is given as “had no effect”.

For “RII: regulatory subunit of bovine cardiac type II cAPK (Promega)”, in experiment [1] (spoke-deficient axonemes, type-II regulatory subunit of cAPK), the “effect of RII on microtubule sliding” value is “increased microtubule sliding to wild-type velocity”.

For “Thr-Tyr-Ala-Asp-Phe-Ile-Ala- Ser-Gly-Arg-Thr-Gly-A_rg-Arg-Aan-Ala-Ile-NH2 [PKI, PKI(6-22)amide]”, in [1] (spoke-deficient axonemes), the “dose dependence of sliding velocity stimulation” value was “dose-dependent”. Also, the entries for the “effect on velocity” value in [1] and in experiment [11] were “increased to wild-type level” and “significantly increased to wild-type levels”, respectively. In addition, the “efficacy of PKI versus NAcPKI” value in experiment [8] (pf17, 100 nM (Fig. 2a)) is given as “no detectable difference”. For the same compound, the “effect on microtubule sliding velocity” value in experiment [8] (pf17, 100 nM peptide (Fig. 2a), PKI and NAcPKI P < 0.01 vs control or triAlaPKI) is “significantly increased”; in experiment [4] (wild-type 137c, 0-200 nM PKI (Fig. 2b)), “did not affect”; in experiment [9] (pf14pf28, 100 nM PKI (Fig. 5), P < 0.001), “significantly increased”. Besides, in experiment [9] (pf14pf28, PKI), the “effect on microtubule sliding vs pf28 control velocity” value is “increased microtubule sliding to control (pf28) velocity”. Also, in the experiment on pf17 axonemes, the “reactivation of in vitro beating” value is given as “unable to reactivate”. In addition, in the experiment with inner arm dyneins (pf14pf28, 100 nM PKI (Fig. 6), two experiments pooled), the “sliding velocity with control dynein on extracted PKI-treated axonemes (PKIAxos)” value is “only slow”. The “sliding velocity of PKI-treated axonemes before extraction vs control axonemes” value with inner arm dyneins (pf14pf28, 100 nM PKI, Pre-Extr (Fig. 6), P < 0.05) is “significantly greater”. In experiment [10] (inhibition of cAPK, 1989), the pKi was 8.60 to 8.80. Also, the “specificity of cAPK inhibition” value in experiment [10] (1986) was “high degree of specificity”.

These data come from publication PMC2120320 (The Journal of Cell Biology, 1994).
